The results in this text go back to ChEMBL document CHEMBL2069188, “Structural requirements for the antitubercular quaternized triflupromazine pharmacophore” (Bioorg Med Chem Lett, 2012).

Structures are written as SMILES. Values after ≈ are worked out from the molar mass of the structure shown.

This test relates to Mycobacterium tuberculosis. The test is described as follows: Antitubercular activity against highly drug-resistant, non replicating, persistent Mycobacterium tuberculosis harboring Vibrio harveyii luciferase gene incubated under anaerobic condition measured after 28 hrs of aerobic recovery by LORA method. It counts as functional.

What is called MIC90 is the lowest concentration that inhibits either 90% of growth or 90% of the strains tested, depending on the study. On to `C[N+](C)(CCCN1c2ccccc2Sc2ccc(C(F)(F)F)cc21)Cc1ccc(Br)cc1.[Br-]`, for which the MIC90 came to 7.1 µM. On to `C[N+](C)(CCCN1c2ccccc2Sc2ccc(C(F)(F)F)cc21)Cc1ccc(I)cc1.[Br-]`, for which the MIC90 worked out at 7.2 µM.

Molecule `FC(F)(F)c1ccc2c(c1)N(Cc1cn(Cc3ccc(Cl)cc3)nn1)c1ccccc1S2` came in with an MIC90 of over 100 µM. `C[N+](C)(CCCN1c2ccccc2Sc2ccc(C(F)(F)F)cc21)Cc1ccc(F)cc1.[Cl-]` gave an MIC90 of 14.3 µM. This counts as double-digit micromolar. With `C[N+](C)(CCCN1c2ccccc2Sc2ccc(C(F)(F)F)cc21)Cc1ccc(Cl)cc1.[Cl-]` the figure was 7.8 µM. With `CO[C@H]1/C=C/O[C@@]2(C)Oc3c(C)c(O)c4c(O)c(c(/C=N/N5CCN(C)CC5)c(O)c4c3C2=O)NC(=O)/C(C)=C\C=C\[C@H](C)[C@H](O)[C@@H](C)[C@@H](O)[C@@H](C)[C@H](OC(C)=O)[C@@H]1C` [RIFAMPIN] the figure was 0.61 µM (≈ 0.502 µg/mL).
